These results are taken from patent US10125134B2 (Mirati Therapeutics, Inc., priority 2016, dated 2018).

Like-named read-outs stand apart in the source and are kept apart here.

The target in one assay is KRas G12C (Homo sapiens, UniProt P01116, C118S/C51S/C80L/G12C). The assay is described as follows: KRas G12C Modification Assay (LCMS detection of covalent adduct). The settings on record: normalized percent of control; tested at 5 μM concentration for 3 hours. The assay is classed as binding. An outline of the steps: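 Covalent modification was read by reverse-phase LC/MS of intact protein after compound exposure, each reaction stopped at its time point with 25 mM acetic acid. Unmodified-protein signal, taken as percent of total, was normalised to untreated protein and reported as POC.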

Assay [1] relates to NCI-H358 cells (express KRas G12C), Phospho-ERK. The assay is described as follows: Cellular inhibition of KRas G12C: Phospho-ERK in NCI-H358 cells. In kind it is cell-based. Particulars: Homo sapiens, pERK(Thr202/Tyr204) normalized with GAPDH, NCI-H358 cells, 3 hours, read-out: IC50. An outline of the steps: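 IC50 derived by 4-parameter fit of GAPDH-normalized pERK(Thr202/Tyr204) signal, as percent of DMSO control. Signal came from in-cell immunodetection with infrared secondaries after 3 h compound exposure of KRas G12C NCI-H358 cells at 0.5% DMSO.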

Broadly, the IC50 is the concentration that inhibits the measured activity by half.

As to `C=CC(=O)N1CCN(c2nc(O[C@H](C)CN(C)C)nc3c2CCN(c2c(O)ccc(C)c2F)C3)CC1` [Example 84, (R)-1-(4-(2-((1-(dimethylamino)propan-2-yl)oxy)-7-(2-fluoro-6-hydroxy-3-methylphenyl)-5,6,7,8-tetrahydropyrido[3,4-d]pyrimidin-4-yl)piperazin-1-yl)prop-2-en-1-one], the POC entry on KRas G12C is listed as “A (“A”≤25% POC)”. Besides, the IC50 in assay [1] is more than 1000 nM.

Turning to `C=CC(=O)N1CCN(c2nc(OCCN3CCCC3)nc3c2CCN(c2cc(O)cc4ccccc24)C3)CC1` [Example 85, 1-(4-(7-(3-hydroxynaphthalen-1-yl)-2-(2-(pyrrolidin-1-yl)ethoxy)-5,6,7,8-tetrahydropyrido[3,4-d]pyrimidin-4-yl)piperazin-1-yl)prop-2-en-1-one], the POC result on KRas G12C is “C (“C”>50% POC)”. The IC50 in assay [1] (NCI-H358, 3 h) is more than 1000 nM.

As to `C=CC(=O)N1CCN(c2nc(O[C@H](C)CN(C)C)nc3c2CCN(c2cc(OC(F)(F)F)ccc2O)C3)CC1` [Example 86, (R)-1-(4-(2-((1-(dimethylamino)propan-2-yl)oxy)-7-(2-hydroxy-5-(trifluoromethoxy)phenyl)-5,6,7,8-tetrahydropyrido[3,4-d]pyrimidin-4-yl)piperazin-1-yl)prop-2-en-1-one], on KRas G12C, the POC result is recorded as “A (“A”≤25% POC)”. The IC50 in assay [1] is more than 1000 nM.

As for `C=CC(=O)N1CCN(c2nc(O[C@H](C)CN(C)C)nc3c2CCN(c2c(C)ccc(F)c2O)C3)CC1` [Example 87, (R)-1-(4-(2-((1-(dimethylamino)propan-2-yl)oxy)-7-(3-fluoro-2-hydroxy-6-methylphenyl)-5,6,7,8-tetrahydropyrido[3,4-d]pyrimidin-4-yl)piperazin-1-yl)prop-2-en-1-one], the POC result on KRas G12C was “A (“A”≤25% POC)”. Besides, the IC50 in assay [1] was more than 1000 nM.

Consider `C=CC(=O)N1CCN(c2nc(OCCN3CCCC[C@@H]3C)nc3c2CCN(c2cc(O)cc4ccccc24)C3)CC1` [Example 88, (S)-1-(4-(7-(3-hydroxynaphthalen-1-yl)-2-(2-(2-methylpiperidin-1-yl)ethoxy)-5,6,7,8-tetrahydropyrido[3,4-d]pyrimidin-4-yl)piperazin-1-yl)prop-2-en-1-one], for which the POC result at KRas G12C is recorded as “C (“C”>50% POC)”. In addition, the IC50 in assay [1] (NCI-H358, 3 h) is 0.1 to 1000 nM.

For the compound `C=CC(=O)N1CCN(c2nc(OCC3CCN(C)C3)nc3c2CCN(c2cc(O)cc4ccccc24)C3)CC1` (stereo not drawn) [Example 89, 1-(4-(7-(3-hydroxynaphthalen-1-yl)-2-((l-methylpyrrolidin-3-yl)methoxy)-5,6,7,8-tetrahydropyrido[3,4-d]pyrimidin-4-yl)piperazin-1-yl)prop-2-en-1-one], on KRas G12C, the POC entry is recorded as “C (“C”>50% POC)”. In assay [1] (NCI-H358, 3 h), the IC50 is 0.1 to 1000 nM.

In the case of `C=CC(=O)N1CCN(c2nc(OCCCN3CCOCC3)nc3c2CCN(c2cc(O)ccc2OC(F)(F)F)C3)CC1` [Example 90, 1-(4-(7-(5-hydroxy-2-(trifluoromethoxy)phenyl)-2-(3-morpholinopropoxy)-5,6,7,8-tetrahydropyrido[3,4-d]pyrimidin-4-yl)piperazin-1-yl)prop-2-en-1-one], the POC result on KRas G12C is given as “C (“C”>50% POC)”. Also, the IC50 in assay [1] lay in the range of 0.1 to 1000 nM.

`C=CC(=O)N1CCN(c2nc(O[C@H](C)CN(C)C)nc3c2CCN(c2cc(O)cc(OC(F)(F)F)c2)C3)CC1` [Example 91, (R)-1-(4-(2-((1-(dimethylamino)propan-2-yl)oxy)-7-(3-hydroxy-5-(trifluoromethoxy)phenyl)-5,6,7,8-tetrahydropyrido[3,4-d]pyrimidin-4-yl)piperazin-1-yl)prop-2-en-1-one]: the POC entry at KRas G12C was “A (“A”≤25% POC)”. Further, in assay [1], the IC50 is more than 1000 nM.

In the case of `C=CC(=O)N1CCN(c2nc(OCCN3CCC(C)CC3)nc3c2CCN(c2cc(O)cc4ccccc24)C3)CC1` [Example 92, 1-(4-(7-(3-hydroxynaphthalen-1-yl)-2-(2-(4-methylpiperidin-1-yl)ethoxy)-5,6,7,8-tetrahydropyrido[3,4-d]pyrimidin-4-yl)piperazin-1-yl)prop-2-en-1-one], the POC result on KRas G12C is “C (“C”>50% POC)”. The IC50 in assay [1] (NCI-H358, 3 h) fell in the range of 0.1 to 1000 nM.

As for `C=CC(=O)N1CCN(c2nc(OC(C)CCN3CCOCC3)nc3c2CCN(c2cc(O)cc4ccccc24)C3)CC1` (centres unmarked) [Example 93, 1-(4-(7-(3-hydroxynaphthalen-1-yl)-2-((4-morpholinobutan-2-yl)oxy)-5,6,7,8-tetrahydropyrido[3,4-d]pyrimidin-4-yl)piperazin-1-yl)prop-2-en-1-one], the POC entry on KRas G12C is “C (“C”>50% POC)”. In addition, the IC50 in assay [1] (NCI-H358, 3 h) is more than 1000 nM.

For `C=CC(=O)N1CCN(c2nc(O[C@H](C)CN(C)C)nc3c2CCN(c2cc(O)ccc2OC)C3)CC1` [Example 94, (R)-1-(4-(2-((1-(dimethylamino)propan-2-yl)oxy)-7-(5-hydroxy-2-methoxyphenyl)-5,6,7,8-tetrahydropyrido[3,4-d]pyrimidin-4-yl)piperazin-1-yl)prop-2-en-1-one], the POC result on KRas G12C is given as “A (“A”≤25% POC)”. The IC50 in assay [1] is more than 1000 nM.

Regarding `C=CC(=O)N1CCN(c2nc(O[C@H](C)CN(C)C)nc3c2CCN(c2c(C)cccc2O)C3)CC1` [Example 95, (R)-1-(4-(2-((1-(dimethylamino)propan-2-yl)oxy)-7-(2-hydroxy-6-methylphenyl)-5,6,7,8-tetrahydropyrido[3,4-d]pyrimidin-4-yl)piperazin-1-yl)prop-2-en-1-one], at KRas G12C, the POC entry was “A (“A”≤25% POC)”. Also, in assay [1], the IC50 is more than 1000 nM.

As to `C=CC(=O)N1CCN(c2nc(OCCCN3CCOCC3)nc3c2CCN(c2cc(O)ccc2OC(C)C)C3)CC1` [Example 96, 1-(4-(7-(5-hydroxy-2-isopropoxyphenyl)-2-(3-morpholinopropoxy)-5,6,7,8-tetrahydropyrido[3,4-d]pyrimidin-4-yl)piperazin-1-yl)prop-2-en-1-one], the POC result at KRas G12C is reported as “A (“A”≤25% POC)”. The IC50 in assay [1] was more than 1000 nM.

Turning to `C=CC(=O)N1CCN(c2nc(OCCN3CCCC[C@H]3C)nc3c2CCN(c2cc(O)cc4ccccc24)C3)CC1` [Example 97, (R)-1-(4-(7-(3-hydroxynaphthalen-1-yl)-2-(2-(2-methylpiperidin-1-yl)ethoxy)-5,6,7,8-tetrahydropyrido[3,4-d]pyrimidin-4-yl)piperazin-1-yl)prop-2-en-1-one], at KRas G12C, the POC result is given as “C (“C”>50% POC)”. The half-maximal inhibitory concentration (IC50) in assay [1] (NCI-H358, 3 h) is 0.1 to 1000 nM.

Consider `C=CC(=O)N1CCN(c2nc(OCCN3CCC[C@H](OC)C3)nc3c2CCN(c2cc(O)cc4ccccc24)C3)CC1` [Example 98, (S)-1-(4-(7-(3-hydroxynaphthalen-1-yl)-2-(2-(3-methoxypiperidin-1-yl)ethoxy)-5,6,7,8-tetrahydropyrido[3,4-d]pyrimidin-4-yl)piperazin-1-yl)prop-2-en-1-one], for which the POC result at KRas G12C is reported as “C (“C”>50% POC)”. Moreover, in assay [1] (NCI-H358, 3 h), the IC50 is more than 1000 nM.

Take `C=CC(=O)N1CCN(c2nc(OCCN3CCC[C@@H](OC)C3)nc3c2CCN(c2cc(O)cc4ccccc24)C3)CC1` [Example 99, (R)-1-(4-(7-(3-hydroxynaphthalen-1-yl)-2-(2-(3-methoxypiperidin-1-yl)ethoxy)-5,6,7,8-tetrahydropyrido[3,4-d]pyrimidin-4-yl)piperazin-1-yl)prop-2-en-1-one]: the POC result on KRas G12C is given as “C (“C”>50% POC)”. For the same compound, the IC50 in assay [1] (NCI-H358, 3 h) is more than 1000 nM.

For `C=CC(=O)N1CCN(c2nc(OC3CCN(C4CC4)CC3)nc3c2CCN(c2cc(O)cc4ccccc24)C3)CC1` [Example 100, 1-(4-(2-((1-cyclopropylpiperidin-4-yl)oxy)-7-(3-hydroxynaphthalen-1-yl)-5,6,7,8-tetrahydropyrido[3,4-d]pyrimidin-4-yl)piperazin-1-yl)prop-2-en-1-one], the POC entry at KRas G12C was “C (“C”>50% POC)”. For the same compound, the IC50 in assay [1] (NCI-H358, 3 h) is more than 1000 nM.

As to `C=CC(=O)N1CCN(c2nc(OCCCN3CCCOCC3)nc3c2CCN(c2cc(O)cc4ccccc24)C3)CC1` [Example 101, 1-(4-(2-(3-(1,4-oxazepan-4-yl)propoxy)-7-(3-hydroxynaphthalen-1-yl)-5,6,7,8-tetrahydropyrido[3,4-d]pyrimidin-4-yl)piperazin-1-yl)prop-2-en-1-one], the POC entry on KRas G12C was “C (“C”>50% POC)”. Besides, the IC50 in assay [1] (NCI-H358, 3 h) lay in the range of 0.1 to 1000 nM.

`C=CC(=O)N1CCN(c2nc(OCCN(CC)CC)nc3c2CCN(c2cc(O)cc4ccccc24)C3)CC1` [Example 102]: the POC entry at KRas G12C was “C (“C”>50% POC)”. Besides, the IC50 in assay [1] (NCI-H358, 3 h) is 0.1 to 1000 nM.

As for `C=CC(=O)N1CCN(c2nc(OCC3CCN(CCOC)C3)nc3c2CCN(c2cc(O)cc4ccccc24)C3)CC1` (centres unmarked) [Example 103, 1-(4-(7-(3-hydroxynaphthalen-1-yl)-2-((1-(2-methoxyethyl)pyrrolidin-3-yl)methoxy)-5,6,7,8-tetrahydropyrido[3,4-d]pyrimidin-4-yl)piperazin-1-yl)prop-2-en-1-one], the POC result at KRas G12C is “C (“C”>50% POC)”. In assay [1] (NCI-H358, 3 h), the IC50 was in the range of 0.1 to 1000 nM.

As for `C=CC(=O)N1CCN(c2nc(OCCCN3C[C@@H]4C[C@H]3CO4)nc3c2CCN(c2cc(O)cc4ccccc24)C3)CC1` [Example 104, 1-(4-(2-(3-((1 S,4S)-2-oxa-5-azabicyclo[2.2.1]heptan-5-yl)propoxy)-7-(3-hydroxynaphthalen-1-yl)-5,6,7,8-tetrahydropyrido[3,4-d]pyrimidin-4-yl)piperazin-1-yl)prop-2-en-1-one], the POC entry on KRas G12C is reported as “C (“C”>50% POC)”. Further, the IC50 in assay [1] (NCI-H358, 3 h) was 0.1 to 1000 nM.

For the compound `C=CC(=O)N1CCN(c2nc(OCCCN3CCOCC3)nc3c2CCN(c2cc(O)ccc2C)C3)CC1` [Example 105, 1-(4-(7-(5-hydroxy-2-methylphenyl)-2-(3-morpholinopropoxy)-5,6,7,8-tetrahydropyrido[3,4-d]pyrimidin-4-yl)piperazin-1-yl)prop-2-en-1-one], the POC entry at KRas G12C is listed as “B (“B”>25% POC−≤50% POC)”. Further, the IC50 in assay [1] was more than 1000 nM.
